The results in this text go back to patent US5631247A, “Compounds and compositions with nitrogen-containing non-basic side chains” (Eli Lilly and Company, priority 1996, dated 1997).

Assay type in all cases: in vivo, female Sprague Dawley rats
In one assay the test system is tibia. Kind of assay: Bone density assay (35 day dosing, tibia, single photon absorptiometry). The settings on record: OVX rats, oral in 20% hydroxypropyl β-cyclodextrin, daily for 35 days. As to the method: Following the General Preparation procedure described above, the rats were treated daily for 35 days (6 rats per treatment group) and sacrificed by decapitation on the 36th day. The 35 day time period was sufficient to allow maximal effect on bone density, measured as described herein. At the time of sacrifice, the uteri were removed, dissected free of extraneous tissue, and the fluid contents were expelled before determination of wet weight in order to confirm estrogen deficiency associated with complete ovariectomy. […] The uteri were then placed in 10% neutral buffered formalin to allow for subsequent histological analysis. The right tibias were excised and scanned at the distal metaphysis 1 mm from the patellar groove with single photon absorptiometry. Results of the densitometer measurements represent a calculation of bone density as a function of the bone mineral content and bone width. In accordance with the procedures outlined above, compounds of the present invention and EE2 in 20% hydroxypropyl β-cyclodextrin were orally administered to test animals.

The subject of a further assay is eosinophil peroxidase. As to the kind of experiment: Uterine eosinophil peroxidase (EPO) assay in ovariectomized rats (four day dosing). The settings on record: oral, OVX rats. Further details: Uterine EPO (Vmax): unit not given here. As for the experimental part:
(§1) In the examples illustrating the methods, a post-menopausal model was used in which effects of different treatments upon various biological parameters were determined, including serum cholesterol concentration, uterine weight, eosinophil peroxidase activity, MCF-7 cell proliferation, and bone density.
(§2) Animals were dosed daily for 4 days. […] A blood sample was collected by cardiac puncture.
(§3) The data presented in Table 1 reflect the response of 5 to 6 rats per treatment.

In another assay the test system is serum cholesterol. Kind of assay: Serum cholesterol in ovariectomized rats (post-menopausal rat model, four day dosing). The settings on record: OVX rats, oral, 4 days; EE2 at 0.1 mg/Kg/day. As for the experimental part: as §1, §2
Blood samples were allowed to clot at room temperature for 2 hours, and serum was obtained following centrifugation for 10 minutes at 3000 rpm. Serum cholesterol was determined using a Boshringer Mannheim Diagnostics high performance cholesterol assay. Briefly the cholesterol was oxidized to cholest-4-en-3-one and hydrogen peroxide. The hydrogen peroxide was then reacted with phenol and 4-aminophenazone in the presence of peroxidase to produce a p-quinone imine dye, which was read spectrophotemetrically at 500 nm. Cholesterol concentration was then calculated against a standard curve. The entire assay was automated using a Biomek Automated Workstation.
(§4) Data presented in Table 1 below show comparative results among control ovariectomized rats, rats treated with EE2, and rats treated with certain compounds of the present invention. […] This uterine response to estrogen is well recognized in the art.
as §3

A further assay concerns uterus. Kind of assay: Wet uterine weight in ovariectomized rats (four day dosing). As to the method: as §1, §2, §4, §3

As to `C#C[C@]1(O)CC[C@H]2[C@@H]3CCc4cc(O)ccc4[C@H]3CC[C@@]21C` [ethynyl estradiol, 17α-Ethynyl estradiol, reference compound], in the assay on tibia, the “effect on bone loss / tibia density (in words)” value is recorded as “prevented this loss”. Further, the “Uterine EPO (Vmax)” value in the assay with eosinophil peroxidase (0.1 mg/kg, daily for 4 days) is 120.0. The “eosinophil infiltration into the uterus (in words)” value in the assay on eosinophil peroxidase (4 days, by eosinophil peroxidase activity) is on record as “caused a substantial, expected increase in eosinophil infiltration”. For the same compound, the “effect on serum cholesterol (in words)” value in the assay with serum cholesterol is given as “caused a decrease in serum cholesterol”. In addition, the “effect on uterine weight (in words)” value in the assay on uterus (OVX rats, oral, 4 days, EE2 at 0.1 mg/Kg/day) is reported as “substantially greater than the uterine weight of ovariectomized test animals”. Also, the change in vivo at 0.1 mg/kg in the assay on uterus (Rattus norvegicus, po, 96 h, 0.1 mg/kg, daily for 4 days, increase vs OVX control, read-out: Uterine Weight (% inc. OVX)) worked out at 235%.
